Measurements published in article PMC2409716 (British Journal of Cancer, 2004).
Like-named read-outs stand apart in the source and are kept apart here. Each block holds one compound with its values, some of them ahead of it.

Key:
[1] = set-up: method as in earlier work; conditions: ref unpublished data, Johnson & Johnson Pharmaceutical Research and Development, cited from earlier work
[2] = human, in vivo
[3] = tested on: UGT1A; conditions: 2002, cited from earlier work
[4] = clinical; conditions: human
[5] = Noncompartmental plasma pharmacokinetics of irinotecan and SN-38 with/without R115777
[6] = tested on: patients with a solid malignancy; experiment: Phase I toxicity evaluation (NCI common toxicity criteria v2.0, DLT/MTD) of irinotecan with oral R115777; assay type: in vivo, human
Procedure: In the continuous regimen, R115777 was administered on days 3–21 of cycle 1, and then continuously thereafter, starting again on day 1 of subsequent cycles. In the intermittent regimen, R115777 was administered on days 3–14 of the first cycle, and then starting again on day 1 of subsequent cycles, but without administration on days 15–21.
Three patients were accrued at the starting dose level, and in the absence of DLT, another three patients were entered at the next dose level. For safety reasons, the next dose level was not opened until at least three patients were assessable for toxicity in the first cycle. In case only one patient developed DLT (see below), the dose level was expanded with additional patients to a total of six. […] The MTD (recommended dose) was defined as one dose level below the level at which ⩾2 of six patients experienced DLT.
Toxicity was assessed by the National Cancer Institute Version 2.0 common toxicity criteria on a scale graded 0–4 (Available: http://ctep.cancer.gov/reporti ng/ctc.html (accessed: February 27, 2004)). […] Tumours were assessed radiologically before patients were enrolled on the study, and after every even-numbered cycle. […]

[7] = tested on: CYP3A4; set-up: method as in Bohets, 1998; conditions: human hepatic microsomal preparations; at in vitro concentrations five-fold higher than the peak concentrations observed in the present study; ref Bohets, 1998; cited from earlier work
[8] = tested on: ABCB1 (P-glycoprotein); set-up: method as in earlier work; conditions: ref unpublished data, Johnson & Johnson Pharmaceutical Research and Development, cited from earlier work
[9] = clinical; conditions: human, plasma, po
[10] = Noncompartmental plasma pharmacokinetics of R115777 with/without irinotecan; conditions: for AUC12 h Ratio (R115777 with irinotecan to R115777 alone) / Cmax Ratio (R115777 with irinotecan to R115777 alone): least-squares means, 90% confidence limits in parentheses; for tmax: median
[11] = human, in vivo, 350 mg
[12] = preclinical studies, ref Gagne et al
[13] = Continuous, (+) R115777 200 mg b.i.d. (cycle 2), irinotecan 200–350 mg m^−2, dose-adjusted to 350 mg m^−2, mean±s.d., 11–13 patients
[14] = Intermittent, oral R115777 200–400 mg b.i.d., dose-normalised to 200 mg, (+) Irinotecan 350 mg m^−2, mean±s.d., 12–13 patients
[15] = continuous, relative to monotherapy, not significant
[16] = intermittent regimens, not statistically significant

Compound: CC(=O)O[C@@]12CO[C@@H]1C[C@H](O)[C@@]1(C)C(=O)[C@H](O)C3=C(C)[C@@H](OC(=O)[C@H](O)[C@@H](NC(=O)OC(C)(C)C)c4ccccc4)C[C@@](O)([C@@H](OC(=O)c4ccccc4)[C@H]21)C3(C)C [docetaxel]
- plasma AUC of docetaxel ([1]; continuous R115777 (200 mg b.i.d.), subset of subjects): relatively unchanged
- effect of R115777 on the systemic exposure to docetaxel ([1]; single-dose administration of R115777 (200 or 300 mg)): little effect

- AUCcar Mean diff [2]: -26.7 ± 10.1 ng·h/mL
- AUClac Mean diff [2]: -59.7 ± 34.7 ng·h/mL
- REClac (relative extent of conversion, AUCSN-38/AUCirinotecan × 100%, lactone) [2]: 6.91±3.05%
- REClac Mean diff [2]: −0.57±0.50%
- RECtotal (relative extent of conversion, AUCSN-38/AUCirinotecan × 100%, total) [2]: 2.72±1.02%
- RECtotal Mean diff [2]: −0.09±0.13%
- half-life ([4]; in vivo): 13.4 ± 4.44 h
- half-life ([4]; in vivo, 350 mg): 18.1 ± 13.1 h
- Cmax ([4]; plasma, intravenous): 41.5 ± 20.1 ng/mL
- AUC(0-t) ([4]; plasma, intravenous, 350 mg): 326 ± 134 ng·h/mL
- AUC48 h [5, 13]: 569 ± 328 ng·h/mL
- Cmax [5, 13]: 70.2 ± 49.6 ng/mL
- Cmax ([5]; Continuous, (−) R115777 (cycle 1), irinotecan 200–350 mg m^−2, dose-adjusted to 350 mg m^−2, mean±s.d., 11–13 patients): 63.4 ± 37.4 ng/mL
- AUC48 h ([5]; Intermittent, (+) R115777 200–400 mg b.i.d. (cycle 2), irinotecan 350 mg m^−2, mean±s.d., 13 patients): 375 ± 146 ng·h/mL
Compound: CCc1c2c(nc3ccc(O)cc13)-c1cc3c(c(=O)n1C2)COC(=O)[C@]3(O)CC [SN-38, 7-ethyl-10-hydroxycamptothecin]
- isozymes with a minor role in glucuronidation [3, 12]: UGT1A6, UGT1A8, and UGT1A10
- major isozymes involved in glucuronidation [3, 12]: UGT1A1, UGT1A7, and UGT1A9

Compound: Cn1cncc1[C@@](N)(c1ccc(Cl)cc1)c1ccc2c(c1)c(-c1cccc(Cl)c1)cc(=O)n2C [R115777, (R)-6-[amino(4-chlorophenyl)(1-methyl-1H-imidazol-5-yl)methyl]-4-(3-chloro-phenyl)-1-methyl-2(1H)-quinolinone]
- MTD (R115777 dose in the combination) ([6]; oral, 14 consecutive days in 21-day cycles, with irinotecan 350 mg m^−2 every 3 weeks): 300 mg b.i.d.
- effect on CYP3A4 activity [7]: inhibit CYP3A4 activity
- inhibition of P-glycoprotein ([8]; at physiologically relevant concentrations): does not significantly inhibit
- ABCB1 substrate ([8]; preliminary data): not likely to be a substrate
- isozyme with a minor role in N-glucuronidation ([3]; ref Mannens et al): UGT1A3
- prominent isozyme producing the N-glucuronide ([3]; ref Mannens et al): UGT1A4
- tmax [9]: 2.1 h
- AUC(0-t) ([9]; 200 mg): 3240 ± 1590 ng·h/mL
- Cmax ([9]; 200 mg): 840 ± 551 ng/mL
- tmax ([9]; 200 mg): 2 h
- AUC12 h Ratio (R115777 with irinotecan to R115777 alone) ([10]; Continuous): 101 (68–149) percent
- Cmax Ratio (R115777 with irinotecan to R115777 alone) ([10]; Continuous): 93 (63–137) percent
- Cmax ([10]; Continuous, oral R115777 200 mg b.i.d., (+) Irinotecan 200–350 mg m^−2, mean±s.d., 11–13 patients): 735 ± 377 ng/mL
- AUC12 h Ratio (R115777 with irinotecan to R115777 alone) ([10]; Intermittent): 109 (93–127) percent
- Cmax Ratio (R115777 with irinotecan to R115777 alone) ([10]; Intermittent): 106 (89–126) percent
- AUC12 h [10, 14]: 3170 ± 1550 ng·h/mL
- Cmax [10, 14]: 663 ± 296 ng/mL
- tmax ([10]; Intermittent, oral R115777 200–400 mg b.i.d., (+) Irinotecan 350 mg m^−2, 12–13 patients): 2.0 h
- tmax ([10]; Intermittent, oral R115777 200–400 mg b.i.d., (−) Irinotecan, 12–13 patients): 2.0 h
- time at which peak plasma concentrations were observed ([10]; after oral administration, with or without co-administration of irinotecan): 2 h
- decrease in the peak concentration in the combination therapy [10, 15]: 7.0%
- increase in AUC in the combination therapy [10, 15]: 1.0%
- increase in AUC following administration of irinotecan [10, 16]: 9.0%
- increase in peak concentration following administration of irinotecan [10, 16]: 6.0%

Compound: CCc1c2c(nc3ccc(OC(=O)N4CCC(N5CCCCC5)CC4)cc13)-c1cc3c(c(=O)n1C2)COC(=O)[C@]3(O)CC [irinotecan]
- MTD (irinotecan dose in the combination) ([6]; given every 3 weeks, with R115777 300 mg b.i.d. for 14 consecutive days): 350 mg m^−2
- AUC48 h [11]: 20 270±6020 ng h ml^−1
- AUCcar Mean diff [2]: -1950 ± 641 ng·h/mL
- AUClac Mean diff [2]: -269 ± 101 ng·h/mL
- Cmax ([4]; in vivo): 3620 ± 632 ng/mL
